The test system of series [1] is corn planthopper (Peregrinus maidis (Ashmead)). Description: Test C: control of corn planthopper through contact and/or systemic means. It is filed as in vivo. Particulars: 144 h, sprayed at 50 ppm, 6 days, nymphs on corn plant. As for the experimental part: (§1) Test compounds were formulated using a solution containing 10% acetone, 90% water and 300 ppm Activator 900 non-ionic surfactant (Loveland Products, Loveland, Colo., USA). The formulated compounds were applied in 1 mL of liquid through an atomizer nozzle positioned 1.27 cm (0.5 inches) above the top of each test unit. Test compounds were sprayed at the rates indicated, and each test was replicated three times.
For evaluating control of corn planthopper (Peregrinus maidis (Ashmead)) through contact and/or systemic means, the test unit consisted of a small open container with a 3-4-day-old corn (maize) plant inside. White sand was added to the top of the soil prior to application of the test compound.
Test compounds were formulated and sprayed at 50 ppm. After spraying of the formulated test compound, the test units were allowed to dry for 1 h before they were post-infested with ˜15-20 nymphs (18-to-21-day-old). A black, screened cap was placed on the top of each test unit, and the test units were held for 6 days in a growth chamber at 22-24° C. and 50-70% relative humidity. Each test unit was then visually assessed for insect mortality.

For series [2], the system named is green peach aphid (Myzus persicae (Sulzer)). Nature of the series: Test E: control of green peach aphid through contact and/or systemic means. To be noted: 144 h, sprayed at 50 ppm, 6 days, radish plant. It is filed as in vivo. As for the experimental part:
as §1
For evaluating control of green peach aphid (Myzus persicae (Sulzer)) through contact and/or systemic means, the test unit consisted of a small open container with a 12-15-day-old radish plant inside. This was pre-infested by placing on a leaf of the test plant 30-40 aphids on a piece of leaf excised from a culture plant (cut-leaf method). The aphids moved onto the test plant as the leaf piece desiccated. After pre-infestation, the soil of the test unit was covered with a layer of sand.
Test compounds were formulated and sprayed at 50 ppm. After spraying of the formulated test compound, each test unit was allowed to dry for 1 hour and then a black, screened cap was placed on top. The test units were held for 6 days in a growth chamber at 19-21° C. and 50-70% relative humidity. Each test unit was then visually assessed for insect mortality.

For series [3], the system named is cotton melon aphid (Aphis gossypii (Glover)). Nature of the series: Test F: control of cotton melon aphid through contact and/or systemic means. The class given is in vivo. To be noted: 144 h, sprayed at 50 ppm, 6 days, okra plant. As for the experimental part: as §1
[…] This was pre-infested with 30-40 insects on a piece of leaf according to the cut-leaf method, and the soil of the test unit was covered with a layer of sand.
Test compounds were formulated and sprayed at 50 ppm. After spraying, the test units were maintained in a growth chamber for 6 days at 19° C. and 70% relative humidity. Each test unit was then visually assessed for insect mortality.

Series [4] deals with potato leafhopper (Empoasca fabae (Harris)). Nature of the series: Test D: control of potato leafhopper through contact and/or systemic means. It is filed as in vivo. To be noted: 144 h, sprayed at 50 ppm, 6 days, adults on Soleil bean plant. As for the experimental part:
as §1
For evaluating control of potato leafhopper (Empoasca fabae (Harris)) through contact and/or systemic means, the test unit consisted of a small open container with a 5-6-day-old Soleil bean plant (primary leaves emerged) inside. White sand was added to the top of the soil, and one of the primary leaves was excised prior to application of the test compound.
Test compounds were formulated and sprayed at 50 ppm. After spraying of the formulated test compound, the test units were allowed to dry for 1 hour before they were post-infested with 5 potato leafhoppers (18-to-21-day-old adults). A black, screened cap was placed on the top of the test unit, and the test units were held for 6 days in a growth chamber at 20° C. and 70% relative humidity. Each test unit was then visually assessed for insect mortality.

Counter-ions that a name gives are not always drawn.

Usually melting point stands for the temperature of the solid-liquid transition. Take `CCOc1cc(C#CC(C)C)cc(-c2c([O-])[n+](Cc3cnc(Cl)s3)c3c(C)cccn3c2=O)c1` (as salt: salt) [Compound 54, 1-[(2-chloro-5-thiazolyl)methyl]-3-[3-ethoxy-5-(3-methyl-1-butyn-1-yl)phenyl]-2-hydroxy-9-methyl-4-oxo-4H-pyrido[1,2-a]pyrimidinium inner salt]: the melting point is 90 to 97 °C.
For orientation: mortality means the percentage killed. With `CCC#Cc1cc(Cl)cc(-c2c([O-])[n+](Cc3cnc(Cl)s3)c3c(C)cccn3c2=O)c1` [Compound 1, 3-[3-(1-butyn-1-yl)-5-chlorophenyl]-1-[(2-chloro-5-thiazolyl)methyl]-2-hydroxy-9-methyl-4-oxo-4H-pyrido[1,2-a]pyrimidinium inner salt], the mortality at 50 ppm in series [1], in series [2] and in series [3] was ≥ 80% in each case.
`CCC#Cc1cccc(-c2c([O-])[n+](Cc3cnc(Cl)s3)c3c(C)cccn3c2=O)c1` [Compound 2, 3-[3-(1-butyn-1-yl)phenyl]-1-[(2-chloro-5-thiazolyl)methyl]-2-hydroxy-9-methyl-4-oxo-4H-pyrido[1,2-a]pyrimidinium inner salt]: the mortality at 50 ppm in series [1], in series [2] and in series [3] was ≥ 80% each time.
As for `COc1cc(C#CC2CC2)cc(-c2c([O-])[n+](Cc3cnc(Cl)s3)c3c(C)cccn3c2=O)c1` [Compound 4, 1-[(2-chloro-5-thiazolyl)methyl]-3-[3-(2-cyclopropylethynyl)-5-methoxyphenyl]-2-hydroxy-9-methyl-4-oxo-4H-pyrido[1,2-a]pyrimidinium inner salt], the mortality at 50 ppm in series [1], in series [2], in series [4] and in series [3] was ≥ 80% throughout.
Take `Cc1cc(C#CC(C)C)cc(-c2c([O-])[n+](Cc3cnc(Cl)s3)c3c(C)cccn3c2=O)c1` [Compound 7, 1-[(2-chloro-5-thiazolyl)methyl]-2-hydroxy-9-methyl-3-[3-methyl-5-(3-methyl-1-butyn-1-yl)phenyl]-4-oxo-4H-pyrido[1,2-a]pyrimidinium inner salt]: the mortality at 50 ppm in series [1], in series [2], in series [4] and in series [3] was ≥ 80% throughout.
For `Cc1cc(C#CC2CC2)cc(-c2c([O-])[n+](Cc3cnc(Cl)s3)c3c(C)cccn3c2=O)c1` [Compound 11, 1-[(2-chloro-5-thiazolyl)methyl]-3-[3-(2-cyclopropylethynyl)-5-methylphenyl]-2-hydroxy-9-methyl-4-oxo-4H-pyrido[1,2-a]pyrimidinium inner salt], the mortality at 50 ppm in series [1], in series [2], in series [4] and in series [3] was ≥ 80% throughout.
As for `Cc1cccn2c(=O)c(-c3cc(C#CC4CC4)cc(C(C)C)c3)c([O-])[n+](Cc3cnc(Cl)s3)c12` [Compound 14], the mortality at 50 ppm in series [2] and in series [3] was ≥ 80% throughout.
Regarding `COc1cc(C#CC(C)C)cc(-c2c([O-])[n+](Cc3cnc(Cl)s3)c3c(C)cccn3c2=O)c1` [Compound 18], the mortality at 50 ppm in series [2] and in series [3] was ≥ 80% each time.
Consider `Cc1cccn2c(=O)c(-c3cc(F)cc(C#CC(C)C)c3)c([O-])[n+](Cc3cnc(Cl)s3)c12` [Compound 21], for which the mortality at 50 ppm in series [2], in series [4] and in series [3] was ≥ 80% each time.
As to `Cc1cccn2c(=O)c(-c3cc(C#CC(C)C)cc(C(F)(F)F)c3)c([O-])[n+](Cc3cnc(Cl)s3)c12` [Compound 26], in series [4], the mortality at 50 ppm is ≥ 80%.
Consider `Cc1cccn2c(=O)c(-c3cc(F)cc(C#CC4CC4)c3)c([O-])[n+](Cc3cnc(Cl)s3)c12` [Compound 29], for which the mortality at 50 ppm in series [2] was ≥ 80%.
With `Cc1cccn2c(=O)c(-c3cc(Cl)cc(C#CC4CC4)c3)c([O-])[n+](Cc3cnc(Cl)s3)c12` [Compound 35], the mortality at 50 ppm in series [2] and in series [3] was ≥ 80% each time.
As to `Cc1cccn2c(=O)c(-c3cccc(C#CC4CC4)c3)c([O-])[n+](Cc3cnc(Cl)s3)c12` [Compound 37, 1-[(2-chloro-5-thiazolyl)methyl]-3-[3-(2-cyclopropylethynyl)phenyl]-2-hydroxy-9-methyl-4-oxo-4H-pyrido[1,2-a]pyrimidinium inner salt], the mortality at 50 ppm in series [1], in series [2], in series [4] and in series [3] was ≥ 80% in each case.
As to `Cc1cccn2c(=O)c(-c3cccc(C#CC(C)C)c3)c([O-])[n+](Cc3cnc(Cl)s3)c12` [Compound 44, 1-[(2-chloro-5-thiazolyl)methyl]-2-hydroxy-9-methyl-3-[3-(3-methyl-1-butyn-1-yl)phenyl]-4-oxo-4H-pyrido[1,2-a]pyrimidinium inner salt], the mortality at 50 ppm in series [1], in series [2], in series [4] and in series [3] was ≥ 80% each time.
With `Cc1cccn2c(=O)c(-c3cc(Cl)cc(C#Cc4ccccc4)c3)c([O-])[n+](Cc3cnc(Cl)s3)c12` [Compound 47], the mortality at 50 ppm in series [4] and in series [3] was ≥ 80% each time.
With `CCOc1cc(C#CC2CC2)cc(-c2c([O-])[n+](Cc3cnc(Cl)s3)c3c(C)cccn3c2=O)c1` [Compound 51, 1-[(2-chloro-5-thiazolyl)methyl]-3-[3-(2-cyclopropylethynyl)-5-ethoxyphenyl]-2-hydroxy-9-methyl-4-oxo-4H-pyrido[1,2-a]pyrimidinium inner salt], the mortality at 50 ppm in series [1], in series [2] and in series [3] was ≥ 80% in each case.
In the case of `CC#Cc1cccc(-c2c([O-])[n+](Cc3cnc(Cl)s3)c3c(C)cccn3c2=O)c1` [Compound 61], the mortality at 50 ppm in series [1], in series [4] and in series [3] was ≥ 80% throughout.
Turning to `Cc1ccc(-c2c([O-])[n+](Cc3cnc(Cl)s3)c3c(C)cccn3c2=O)cc1C#CC(C)C` [Compound 86], the mortality at 50 ppm in series [1], in series [2], in series [4] and in series [3] was ≥ 80% in each case.
